In article PMC6775102, “Lifespan-increasing drug nordihydroguaiaretic acid inhibits p300 and activates autophagy” (NPJ Aging and Mechanisms of Disease, 2019):

Target: T1, p300 (Homo sapiens, UniProt Q09472)
T1 construct: gene EP300; p300 BHC (bromodomain, catalytic acetyltransferase domain, and C/H3 domain, amino acids 965–1810); also p300 HAT (amino acids 1284–1673)
T1 sequence (Q09472 965-1810): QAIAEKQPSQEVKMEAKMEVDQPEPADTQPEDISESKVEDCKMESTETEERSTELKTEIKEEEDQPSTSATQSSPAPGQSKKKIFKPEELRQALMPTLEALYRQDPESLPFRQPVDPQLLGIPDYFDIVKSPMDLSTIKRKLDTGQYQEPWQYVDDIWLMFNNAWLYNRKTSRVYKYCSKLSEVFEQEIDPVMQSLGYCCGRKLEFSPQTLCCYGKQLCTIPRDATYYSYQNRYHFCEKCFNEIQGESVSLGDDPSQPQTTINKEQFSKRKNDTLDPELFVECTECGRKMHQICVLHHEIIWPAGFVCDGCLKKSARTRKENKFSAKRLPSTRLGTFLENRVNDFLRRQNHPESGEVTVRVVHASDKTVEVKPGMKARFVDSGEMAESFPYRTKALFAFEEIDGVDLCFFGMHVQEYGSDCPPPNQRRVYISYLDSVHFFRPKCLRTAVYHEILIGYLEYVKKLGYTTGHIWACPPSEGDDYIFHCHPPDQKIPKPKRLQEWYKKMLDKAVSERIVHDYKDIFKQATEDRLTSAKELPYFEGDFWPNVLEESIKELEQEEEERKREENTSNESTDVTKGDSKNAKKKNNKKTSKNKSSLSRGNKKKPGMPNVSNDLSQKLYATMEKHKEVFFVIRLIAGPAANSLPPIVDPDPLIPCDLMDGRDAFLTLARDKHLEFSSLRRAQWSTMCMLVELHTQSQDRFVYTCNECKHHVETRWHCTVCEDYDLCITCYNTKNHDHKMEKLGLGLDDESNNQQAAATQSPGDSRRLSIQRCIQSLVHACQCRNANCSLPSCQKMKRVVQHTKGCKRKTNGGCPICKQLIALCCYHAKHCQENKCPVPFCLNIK
Assay: fluorimetric acetyltransferase assay with recombinant p300 BHC and H3 peptide; second assay with p300 HAT; supported by CETSA of p300 HAT in HEK293T cells (+[…] °C)
Assay type: biochemical

- IC50: 10.3 µM
Compound: CC(Cc1ccc(O)c(O)c1)C(C)Cc1ccc(O)c(O)c1 (stereo not shown) [nordihydroguaiaretic acid]
